≈ marks a conversion by molar mass, not a printed value. Like-named read-outs stand apart in the source and are kept apart here. Where a SMILES comes first, the peptide text is derived from it.
Key:
S. aureus ATCC 25923 = type: cell-based, Staphylococcus aureus; settings: ATCC 25923
Experimental: (§1) All experiments were conducted at least three different times.

S. aureus ATCC 29213 = type: cell-based, Staphylococcus aureus; settings: ATCC 29213
Experimental: as §1

[1] = tested on: S. Typhimurium ATCC 14028; type: cell-based, Salmonella Typhimurium; settings: ATCC 14028
Experimental: as §1

S. Typhimurium C 7731 = type: cell-based, Salmonella Typhimurium; settings: C 7731
Experimental: as §1

P. aeruginosa ATCC 27853 = type: cell-based, Pseudomonas aeruginosa; settings: ATCC 27853
Experimental: as §1

human red blood cells = assay: Hemolytic activity assay; type: cell-based; settings: for MHC (minimum hemolysis concentration): concentration of peptide that causes 20% hemolysis, human red blood cells in 10 mM PBS pH 7.4, 37 °C 1 h, OD570
[2] = tested on: S. epidermidis ATCC 12228; type: cell-based, Staphylococcus epidermidis; settings: ATCC 12228
Experimental: as §1

S. faecalis ATCC 29212 = type: cell-based, Streptococcus faecalis; settings: ATCC 29212
Experimental: as §1

bacteria = settings: when no antimicrobial activity is detected at 32 µM, 64 µM is used
Experimental: The minimum inhibitory concentration (MIC) is a vital indicator for evaluating the antimicrobial activity of AMPs. The determination method refers to the improved method of Dong et al.. The strains to be tested were inoculated in Mueller Hinton broth (MHB) medium and cultured at 200 rpm and 37 °C until the logarithmic growth phase, and then the number of colonies was adjusted to approximately 10^5 CFU/mL. The 95 µL of bovine serum albumin (BSA) diluent (0.01% acetic acid and 0.2% BSA) and 5 µL of peptide (1.28 mM) were added to the first row of the 96-well plate, and 50 µL of BSA diluent was added to the other columns. After mixing in the first row, 50 µL of the mixture was aspirated and added to the second column and so on to the 11th row. After being cultured at 37 °C for 18–24 h, the minimum peptide concentration required to inhibit bacterial growth was the MIC value. All experiments were conducted at least three different times.
The safety of peptides is usually assessed by hemolytic activity. The collected blood of type B from healthy donor was centrifuged at 1000×g for 5 min to collect red blood cells. The red blood cells were then washed and resuspended in 10 mM PBS (pH 7.4). Fifty microliters of diluted red blood cells and an equal volume of peptide solution (2–128 µM) were incubated in a 96-well plate at 37 °C for 1 h. The red blood cell suspension treated with 0.1% Triton X-100 was used as a positive control (100% hemolysis), and untreated blood cell suspension was used as a negative control. The 96-well plate was centrifuged at 1000×g for 5 min at 4 °C, and then the supernatant was transferred to a new 96-well plate. The absorbance at OD570 was measured with a microplate reader.

E. coli ATCC 25922 [3] = type: cell-based, Escherichia coli; settings: ATCC 25922
Experimental: as §1

E. coli UB 1005 = type: cell-based, Escherichia coli
Experimental: as §1

E. coli ATCC 078 = type: cell-based, Escherichia coli; settings: ATCC 078
Experimental: as §1

E. coli ATCC 25922 [4] = type: cell-based, Escherichia coli; settings: ATCC 25922; remark: listed apart in the source
E. coli ATCC 25922 [5] = type: cell-based, Escherichia coli; settings: ATCC 25922; remark: listed apart in the source
Experimental: as §1
The salt ions were added to the BSA solution and configured into different final concentrations of salt ions (150 mM NaCl, 4.5 mM KCl, 6 µM NH4Cl, 8 µM ZnCl2, 1 mM MgCl2, 2 mM CaCl2, and 4 µM FeCl3) solutions. The method discribed as above was referred to determine the MIC value of rLG against E. coli ATCC 25922 in the presence of different concentrations of salt ions.

SMILES | MIC (S. aureus ATCC 25923) | MIC (S. aureus ATCC 29213) | MIC [1] | MIC (S. Typhimurium C 7731) | MIC (P. aeruginosa ATCC 27853) | MHC (minimum hemolysis concentration) (human red blood cells) | MIC [2] | MIC (S. faecalis ATCC 29212) | GM (geometric mean of the MIC value of the peptide against bacteria) (bacteria) | MIC (E. coli ATCC 25922 [3]) | MIC (E. coli UB 1005; UB 1005) | MIC (E. coli ATCC 078) | also measured
CC[C@H](C)[C@H](NC(=O)[C@H](CCCNC(=N)N)NC(=O)[C@H](CCC(N)=O)NC(=O)[C@@H](NC(=O)[C@@H](NC(=O)[C@H](CCCNC(=N)N)NC(=O)[C@H](CCCCN)NC(=O)[C@H](Cc1ccccc1)NC(=O)[C@H](CCCNC(=N)N)NC(=O)[C@H](CC(C)C)NC(=O)[C@H](Cc1ccccc1)NC(=O)[C@H](CCCNC(=N)N)NC(=O)[C@H](CCCCN)NC(=O)[C@@H](NC(=O)[C@H](CCCNC(=N)N)NC(=O)[C@H](CCC(N)=O)NC(=O)[C@@H](NC(=O)[C@@H](NC(=O)[C@H](CCCNC(=N)N)NC(=O)[C@H](CCCCN)NC(=O)[C@@H](N)Cc1ccccc1)[C@@H](C)CC)C(C)C)[C@@H](C)CC)[C@@H](C)CC)C(C)C)C(=O)N[C@@H](CCCCN)C(=O)N[C@@H](CCCNC(=N)N)C(=O)N[C@@H](Cc1ccccc1)C(=O)N[C@@H](CC(C)C)C(=O)N[C@@H](CCCNC(=N)N)C(=O)O [(FR)2] (H-FKRIVQRIKRFLRFKRIVQRIKRFLR-OH) | 3.78 ± 0.63 µM (≈ 13.2 µg/mL) | 2.00 ± 0.00 µM (≈ 7 µg/mL) | 2.22 ± 0.63 µM (≈ 7.78 µg/mL) | 1.11 ± 0.31 µM (≈ 3.89 µg/mL) | 2.22 ± 0.63 µM (≈ 7.78 µg/mL) | 16 µM | 2.00 ± 0.00 µM (≈ 7 µg/mL) | 2.00 ± 0.00 µM (≈ 7 µg/mL) | 1.62 µM | 1.22 ± 0.41 µM (≈ 4.27 µg/mL) | 1.00 ± 0.00 µM (≈ 3.5 µg/mL) | 1.11 ± 0.31 µM (≈ 3.89 µg/mL) | hemolysis (blood cells destroyed) (human red blood cells; at the highest peptide concentration (128 μM), human red blood cells, 37 °C 1 h, 0.1% Triton X-100 = 100%): approximately 43%
CC[C@H](C)[C@H](NC(=O)[C@H](CCCNC(=N)N)NC(=O)[C@H](CCC(N)=O)NC(=O)[C@@H](NC(=O)[C@@H](NC(=O)[C@H](CCCNC(=N)N)NC(=O)[C@H](CCCCN)NC(=O)[C@@H](N)Cc1ccccc1)[C@@H](C)CC)C(C)C)C(=O)N[C@@H](CCCCN)C(=O)N[C@@H](CC(=O)O)C(=O)N[C@@H](Cc1ccccc1)C(=O)N[C@@H](CC(C)C)C(=O)N[C@@H](CCCNC(=N)N)C(=O)O [FD] (H-FKRIVQRIKDFLR-OH) | > 32 µM | > 32 µM | 32.00 ± 0.00 µM (≈ 55 µg/mL) | 32.00 ± 0.00 µM (≈ 55 µg/mL) | > 32 µM | – | > 32 µM | > 32 µM | – | 32.00 ± 0.00 µM (≈ 55 µg/mL) | 16.00 ± 0.00 µM (≈ 27.5 µg/mL) | 16.00 ± 0.00 µM (≈ 27.5 µg/mL) | –
CC[C@H](C)[C@H](NC(=O)[C@H](CCCNC(=N)N)NC(=O)[C@H](CCC(N)=O)NC(=O)[C@@H](NC(=O)[C@@H](NC(=O)[C@H](CCCNC(=N)N)NC(=O)[C@H](CCCCN)NC(=O)[C@@H](N)Cc1ccccc1)[C@@H](C)CC)C(C)C)C(=O)N[C@@H](CCCCN)C(=O)N[C@@H](CCCNC(=N)N)C(=O)N[C@@H](Cc1ccccc1)C(=O)N[C@@H](CC(C)C)C(=O)N[C@@H](CCCNC(=N)N)C(=O)O [FR] (H-FKRIVQRIKRFLR-OH) | 16.00 ± 0.00 µM (≈ 28.2 µg/mL) | 8.00 ± 0.00 µM (≈ 14.1 µg/mL) | 8.00 ± 0.00 µM (≈ 14.1 µg/mL) | 8.00 ± 0.00 µM (≈ 14.1 µg/mL) | 16.00 ± 0.00 µM (≈ 28.2 µg/mL) | – | 3.78 ± 0.63 µM (≈ 6.65 µg/mL) | 4.00 ± 0.00 µM (≈ 7.04 µg/mL) | – | 7.11 ± 1.66 µM (≈ 12.5 µg/mL) | 2.44 ± 0.83 µM (≈ 4.29 µg/mL) | 8.00 ± 0.00 µM (≈ 14.1 µg/mL) | MIC, Control (E. coli ATCC 25922 [4]): 8 µM (≈ 14.1 µg/mL); MIC under physiological salt concentration, CaCl2 (E. coli ATCC 25922 [5]): > 32 µM; MIC under physiological salt concentration, FeCl3 (E. coli ATCC 25922 [5]): 16 µM; MIC under physiological salt concentration, GM (E. coli ATCC 25922 [5]): 19.50 µM; MIC under physiological salt concentration, KCl (E. coli ATCC 25922 [5]): 8 µM; MIC under physiological salt concentration, MgCl2 (E. coli ATCC 25922 [5]): 32 µM; MIC under physiological salt concentration, NH4Cl (E. coli ATCC 25922 [5]): 8 µM; MIC under physiological salt concentration, NaCl (E. coli ATCC 25922 [5]): > 32 µM; MIC under physiological salt concentration, ZnCl2 (E. coli ATCC 25922 [5]): 8 µM
CC[C@H](C)[C@H](NC(=O)[C@H](CCCNC(=N)N)NC(=O)[C@H](CCC(N)=O)NC(=O)[C@@H](NC(=O)[C@@H](NC(=O)[C@H](CCCNC(=N)N)NC(=O)[C@H](CCCCN)NC(=O)[C@H](Cc1ccccc1)NC(=O)[C@H](C)NC(=O)[C@H](CCCCN)NC(=O)[C@H](C)NC(=O)[C@H](C)NC(=O)[C@H](C)NC(=O)[C@H](CCC(=O)O)NC(=O)[C@H](C)NC(=O)[C@H](CCCNC(=N)N)NC(=O)[C@H](CC(C)C)NC(=O)[C@H](Cc1ccccc1)NC(=O)[C@H](CCCNC(=N)N)NC(=O)[C@H](CCCCN)NC(=O)[C@@H](NC(=O)[C@H](CCCNC(=N)N)NC(=O)[C@H](CCC(N)=O)NC(=O)[C@@H](NC(=O)[C@@H](NC(=O)[C@H](CCCNC(=N)N)NC(=O)[C@H](CCCCN)NC(=O)[C@@H](N)Cc1ccccc1)[C@@H](C)CC)C(C)C)[C@@H](C)CC)[C@@H](C)CC)C(C)C)C(=O)N[C@@H](CCCCN)C(=O)N[C@@H](CCCNC(=N)N)C(=O)N[C@@H](Cc1ccccc1)C(=O)N[C@@H](CC(C)C)C(=O)N[C@@H](CCCNC(=N)N)C(=O)O [LA] (H-FKRIVQRIKRFLRAEAAAKAFKRIVQRIKRFLR-OH) | > 32 µM | > 32 µM | 4.44 ± 1.25 µM (≈ 18.3 µg/mL) | 1.11 ± 0.31 µM (≈ 4.57 µg/mL) | 4.44 ± 1.25 µM (≈ 18.3 µg/mL) | 32 µM | > 32 µM | > 32 µM | 8.00 µM | 2.22 ± 0.63 µM (≈ 9.14 µg/mL) | 1.11 ± 0.31 µM (≈ 4.57 µg/mL) | 2.44 ± 0.83 µM (≈ 10 µg/mL) | –
CC[C@H](C)[C@H](NC(=O)[C@H](CCCNC(=N)N)NC(=O)[C@H](CCC(N)=O)NC(=O)[C@@H](NC(=O)[C@@H](NC(=O)[C@H](CCCNC(=N)N)NC(=O)[C@H](CCCCN)NC(=O)[C@H](Cc1ccccc1)NC(=O)[C@H](CO)NC(=O)CNC(=O)CNC(=O)CNC(=O)CNC(=O)[C@H](CCCNC(=N)N)NC(=O)[C@H](CC(C)C)NC(=O)[C@H](Cc1ccccc1)NC(=O)[C@H](CCCNC(=N)N)NC(=O)[C@H](CCCCN)NC(=O)[C@@H](NC(=O)[C@H](CCCNC(=N)N)NC(=O)[C@H](CCC(N)=O)NC(=O)[C@@H](NC(=O)[C@@H](NC(=O)[C@H](CCCNC(=N)N)NC(=O)[C@H](CCCCN)NC(=O)[C@@H](N)Cc1ccccc1)[C@@H](C)CC)C(C)C)[C@@H](C)CC)[C@@H](C)CC)C(C)C)C(=O)N[C@@H](CCCCN)C(=O)N[C@@H](CCCNC(=N)N)C(=O)N[C@@H](Cc1ccccc1)C(=O)N[C@@H](CC(C)C)C(=O)N[C@@H](CCCNC(=N)N)C(=O)O [LG] (H-FKRIVQRIKRFLRGGGGSFKRIVQRIKRFLR-OH) | – | – | – | – | – | 64 µM | – | – | 2.00 µM | – | 1.22 ± 0.41 µM (≈ 4.66 µg/mL) | – | MIC (E. coli UB 1005; Table 3, recombinant vs synthetic LG, mean ± SD of three independent experiments): 1.33 ± 0.25 µM
